According to the supplement of paper PMC4862054:

Tests used:
Test in all cases: normalised viability (% of control), CellTiter-Blue; higher = more viable cells (about 100 = DMSO control)
Conditions in all cases: incubation time: 72 h
MDA-MB-453 = test system: MDA-MB-453
Description: (§1)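 DSRT, CellTiter-Blue viability, 72 h incubation. Signal is normalised to DMSO and benzethonium chloride controls. Value is the normalised response at dose 3.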

MDA-MB-231 [1] = test system: MDA-MB-231
Description: as §1

CAL-85-1 [2] = test system: CAL-85-1
Description: as §1

MFM-223 = test system: MFM-223
Description: as §1

MDA-MB-436 = test system: MDA-MB-436
Description: as §1

HDQ-P1 = test system: HDQ-P1
Description: as §1

HCC1599 = test system: HCC1599
Description: as §1

CAL-120 [3] = test system: CAL-120
Description: as §1

SK-BR-3 [4] = test system: SK-BR-3
Description: as §1

BT-549 [5] = test system: BT-549
Description: as §1

HCC1143 [6] = test system: HCC1143
Description: as §1

CAL-51 = test system: CAL-51
Description: as §1

DU-4475 [7] = test system: DU-4475
Description: as §1

Hs578T [8] = test system: Hs578T
Description: as §1

MDA-MB-468 [9] = test system: MDA-MB-468
Description: as §1

CAL-148 [10] = test system: CAL-148
Description: as §1

BT-474 [11] = test system: BT-474
Description: as §1

HCC1937 = test system: HCC1937
Description: as §1

MDA-MB-231 [12] = test system: MDA-MB-231; remark: listed apart in the source
Summary of the method: (§2)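 Compound dissolved in 5 µl medium was pre-loaded into 384-well plates, and breast cancer cell lines in 20 µl suspension were seeded on top and incubated 72 h. After adding 2.5 µl CellTiter-Blue reagent for 2 h at 37 °C, fluorescence was read at 560/590 nm. Plates were normalised to vehicle (100) and a positive kill control (0), with Z'-factor quality control. Each value is normalised viability at a single listed concentration from the series.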

CAL-85-1 [13] = test system: CAL-85-1; remark: listed apart in the source
Summary of the method: as §2

CAL-120 [14] = test system: CAL-120; remark: listed apart in the source
Summary of the method: as §2

SK-BR-3 [15] = test system: SK-BR-3; remark: listed apart in the source
Summary of the method: as §2

BT-549 [16] = test system: BT-549; remark: listed apart in the source
Summary of the method: as §2

HCC1143 [17] = test system: HCC1143; remark: listed apart in the source
Summary of the method: as §2

DU-4475 [18] = test system: DU-4475; remark: listed apart in the source
Summary of the method: as §2

Hs578T [19] = test system: Hs578T; remark: listed apart in the source
Summary of the method: as §2

MDA-MB-468 [20] = test system: MDA-MB-468; remark: listed apart in the source
Summary of the method: as §2

CAL-148 [21] = test system: CAL-148; remark: listed apart in the source
Summary of the method: as §2

BT-474 [22] = test system: BT-474; remark: listed apart in the source
Summary of the method: as §2

Nc1ccn([C@@H]2O[C@H](CO)[C@@H](O)C2(F)F)c(=O)n1 [Gemcitabine]
Conditions | normalised viability [%]
BT-474 [11], 10 nM | 101
BT-474 [22], 1 nM | 119
BT-474 [22], 100 nM | 103
BT-474 [22], 1000 nM | 101
BT-549 [5], 10 nM | 84
BT-549 [16], 1 nM | 92.8
BT-549 [16], 100 nM | 69.9
BT-549 [16], 1000 nM | 61
CAL-51, 1 nM | 105
CAL-85-1 [2], 1 nM | 93.2
CAL-85-1 [13], 0.3 nM | 96.6
CAL-85-1 [13], 3 nM | 85.1
CAL-85-1 [13], 10 nM | 85.3
CAL-120 [3], 10 nM | 67.3
CAL-120 [14], 1 nM | 107
CAL-120 [14], 100 nM | 41.6
CAL-120 [14], 1000 nM | 43
CAL-148 [10], 1 nM | 106
CAL-148 [21], 0.3 nM | 102
CAL-148 [21], 3 nM | 92.1
CAL-148 [21], 10 nM | 65.2
DU-4475 [7], 1 nM | 116
DU-4475 [18], 0.3 nM | 95.1
DU-4475 [18], 3 nM | 88.3
DU-4475 [18], 10 nM | 98.2
HCC1143 [6], 10 nM | 70.7
HCC1143 [17], 1 nM | 101
HCC1143 [17], 100 nM | 49.7
HCC1143 [17], 1000 nM | 45.8
HCC1599, 10 nM | 88.8
HCC1937, 10 nM | 63.7
HDQ-P1, 1 nM | 125
Hs578T [8], 10 nM | 82.1
Hs578T [19], 1 nM | 106
Hs578T [19], 100 nM | 62.6
Hs578T [19], 1000 nM | 71.5
MDA-MB-231 [1], 10 nM | 77.9
MDA-MB-231 [12], 1 nM | 97.9
MDA-MB-231 [12], 100 nM | 72.1
MDA-MB-231 [12], 1000 nM | 72.2
MDA-MB-436, 10 nM | 94.3
MDA-MB-453, 1 nM | 111
MDA-MB-468 [9], 10 nM | 68.9
MDA-MB-468 [20], 1 nM | 104
MDA-MB-468 [20], 100 nM | 35.5
MDA-MB-468 [20], 1000 nM | 24.6
MFM-223, 10 nM | 92.6
SK-BR-3 [4], 10 nM | 77.4
SK-BR-3 [15], 1 nM | 108
SK-BR-3 [15], 100 nM | 47
SK-BR-3 [15], 1000 nM | 40.9

CC(C)C[C@H](NC(=O)[C@@H](COC(C)(C)C)NC(=O)[C@H](Cc1ccc(O)cc1)NC(=O)[C@H](CO)NC(=O)[C@H](Cc1c[nH]c2ccccc12)NC(=O)[C@H](Cc1cnc[nH]1)NC(=O)[C@@H]1CCC(=O)N1)C(=O)N[C@@H](CCCNC(=N)N)C(=O)N1CCC[C@H]1C(=O)NNC(N)=O [Goserelin]
Conditions | normalised viability [%]
BT-474 [11], 100 nM | 115
BT-474 [22], 10 nM | 115
BT-474 [22], 1000 nM | 111
BT-474 [22], 10000 nM | 131
BT-549 [5], 100 nM | 102
BT-549 [16], 10 nM | 85.9
BT-549 [16], 1000 nM | 88
BT-549 [16], 10000 nM | 103
CAL-51, 10 nM | 113
CAL-85-1 [2], 10 nM | 102
CAL-85-1 [13], 3 nM | 102
CAL-85-1 [13], 30 nM | 93.9
CAL-85-1 [13], 100 nM | 102
CAL-120 [3], 100 nM | 107
CAL-120 [14], 10 nM | 96.4
CAL-120 [14], 1000 nM | 93.1
CAL-120 [14], 10000 nM | 94.4
CAL-148 [10], 10 nM | 101
CAL-148 [21], 3 nM | 92
CAL-148 [21], 30 nM | 97
CAL-148 [21], 100 nM | 98.9
DU-4475 [7], 10 nM | 96.2
DU-4475 [18], 3 nM | 91.4
DU-4475 [18], 30 nM | 84
DU-4475 [18], 100 nM | 111
HCC1143 [6], 100 nM | 87.3
HCC1143 [17], 10 nM | 82.8
HCC1143 [17], 1000 nM | 95
HCC1143 [17], 10000 nM | 89
HCC1599, 100 nM | 94.4
HCC1937, 100 nM | 104
HDQ-P1, 10 nM | 117
Hs578T [8], 100 nM | 113
Hs578T [19], 10 nM | 105
Hs578T [19], 1000 nM | 98
Hs578T [19], 10000 nM | 104
MDA-MB-231 [1], 100 nM | 91.8
MDA-MB-231 [12], 10 nM | 102
MDA-MB-231 [12], 1000 nM | 110
MDA-MB-231 [12], 10000 nM | 114
MDA-MB-436, 100 nM | 102
MDA-MB-453, 10 nM | 102
MDA-MB-468 [9], 100 nM | 101
MDA-MB-468 [20], 10 nM | 96.5
MDA-MB-468 [20], 1000 nM | 94.5
MDA-MB-468 [20], 10000 nM | 108
MFM-223, 100 nM | 91.3
SK-BR-3 [4], 100 nM | 110
SK-BR-3 [15], 10 nM | 98.8
SK-BR-3 [15], 1000 nM | 106
SK-BR-3 [15], 10000 nM | 94.7
